ChEMBL document CHEMBL1201862, “PubChem BioAssay data set” (2004)
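Step 1: Grow cells in 96-well plates. Step 2: Expose to compound for 48 hours at 5 concentrations. Step 3: Interpolate endpoints linearly; if unreached, use highest concentration. At the GI50, growth is halved.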 Active and inactive are the calls of the source. No stated cut-off is given here; in the data, active = GI50 up to about 1.1 µM and inactive = higher.

Legend:
Assay in all cases: NCI tumour cell line growth inhibition, 48 h
NCI-H23 = test system: NCI-H23
UO-31 = test system: UO-31
SK-MEL-5 = test system: SK-MEL-5
OVCAR-8 = test system: OVCAR-8
SK-MEL-28 = test system: SK-MEL-28
KM12 = test system: KM12
CCRF-CEM = test system: CCRF-CEM
CAKI-1 = test system: CAKI-1
HOP-92 = test system: HOP-92
MOLT-4 = test system: MOLT-4
LOX IMVI = test system: LOX IMVI
K562 = test system: K562
SN12C = test system: SN12C
OVCAR-5 = test system: OVCAR-5
HL-60 = test system: HL-60
SK-OV-3 = test system: SK-OV-3

Row | SMILES | GI50 (NCI-H23) | GI50 (UO-31) | GI50 (SK-MEL-5) | GI50 (OVCAR-8) | GI50 (SK-MEL-28) | GI50 (KM12) | GI50 (CCRF-CEM) | GI50 (CAKI-1) | GI50 (HOP-92) | GI50 (MOLT-4) | GI50 (LOX IMVI) | GI50 (K562) | GI50 (SN12C) | GI50 (OVCAR-5) | GI50 (HL-60) | GI50 (SK-OV-3)
1 | c1ccc(/N=C2\c3ccccc3C3=NCCCN32)cc1 | 41.5 µM (inactive) | 29.2 µM (inactive) | 28 µM (inactive) | > 100 µM (inactive) | > 100 µM (inactive) | 38.7 µM (inactive) | 61.1 µM (inactive) | 27.1 µM (inactive) | 13.8 µM (inactive) | 39.4 µM (inactive) | 47.1 µM (inactive) | 29.2 µM (inactive) | > 100 µM (inactive) | > 100 µM (inactive) | – | –
2 | CCCCCCCCCCCCCCCCOC(=O)C(C(=O)OCCCCCCCCCCCCCCCC)[N+](C)(C)CCOC(C)=O | 14.6 µM (inactive) | 19.7 µM (inactive) | 19.7 µM (inactive) | 17.7 µM (inactive) | 24 µM (inactive) | 13.7 µM (inactive) | 10.3 µM (inactive) | 12.6 µM (inactive) | 2.85 µM (inactive) | – | 21.8 µM (inactive) | 19.5 µM (inactive) | 18.4 µM (inactive) | 20.8 µM (inactive) | 2.11 µM (inactive) | 17.8 µM (inactive)
3 | CC1(C)CCC(Sc2ccccc2)O1 (stereo not drawn) | > 100 µM (inactive) | > 100 µM (inactive) | > 100 µM (inactive) | > 100 µM (inactive) | > 100 µM (inactive) | > 100 µM (inactive) | > 100 µM (inactive) | > 100 µM (inactive) | > 100 µM (inactive) | > 100 µM (inactive) | > 100 µM (inactive) | > 100 µM (inactive) | > 100 µM (inactive) | – | > 100 µM (inactive) | > 100 µM (inactive)
4 | CCCCC1(OC(=O)CCC(=O)O)CCC2(CCC(C)C(C/C=C(C)/C=C/C(O)C(C)/C=C/C(=O)O)O2)OC1CC/C(C)=C/C(=O)O (stereo not drawn) | 0.535 µM (active) | 2.97 µM (inactive) | 1.61 µM (inactive) | 2.84 µM (inactive) | 2.02 µM (inactive) | 3.1 µM (inactive) | 3.94 µM (inactive) | 4.14 µM (inactive) | 1.67 µM (inactive) | 5.02 µM (inactive) | 1.66 µM (inactive) | 2.8 µM (inactive) | 2.77 µM (inactive) | 3.94 µM (inactive) | 4.57 µM (inactive) | 6.17 µM (inactive)
5 | Cn1nc(-c2ccccc2)c2c(/C=C/c3ccc(F)cc3)onc2c1=O | 19 µM (inactive) | 29.2 µM (inactive) | > 100 µM (inactive) | 38.1 µM (inactive) | > 100 µM (inactive) | – | > 100 µM (inactive) | 27.4 µM (inactive) | 2.72 µM (inactive) | > 100 µM (inactive) | 90.4 µM (inactive) | 17.3 µM (inactive) | 88.1 µM (inactive) | – | 5.92 µM (inactive) | 50 µM (inactive)
6 | Nc1ccccc1N | > 100 µM (inactive) | > 100 µM (inactive) | > 100 µM (inactive) | > 100 µM (inactive) | > 100 µM (inactive) | > 100 µM (inactive) | 21.1 µM (inactive) | > 100 µM (inactive) | > 100 µM (inactive) | 36.7 µM (inactive) | > 100 µM (inactive) | > 100 µM (inactive) | > 100 µM (inactive) | > 100 µM (inactive) | 25.6 µM (inactive) | > 100 µM (inactive)
7 | CCSC1(SCC)CC(Cc2ccc(OC)cc2)N(/C=N/C(C)(C)C)C1 (stereo not drawn) | 18.7 µM (inactive) | 17.3 µM (inactive) | 16.4 µM (inactive) | 28.2 µM (inactive) | 35.8 µM (inactive) | 25.9 µM (inactive) | 15.2 µM (inactive) | 21 µM (inactive) | 0.321 µM (active) | 14.7 µM (inactive) | 15.1 µM (inactive) | 17.8 µM (inactive) | 25 µM (inactive) | 11.5 µM (inactive) | 10.6 µM (inactive) | 22.8 µM (inactive)
8 | CCn1cc(/C=C/C(C)c2cn(CC)c(=O)[nH]c2=O)c(=O)[nH]c1=O (stereo not drawn) | > 100 µM (inactive) | > 100 µM (inactive) | > 100 µM (inactive) | > 100 µM (inactive) | > 100 µM (inactive) | > 100 µM (inactive) | > 100 µM (inactive) | > 100 µM (inactive) | 11.3 µM (inactive) | > 100 µM (inactive) | > 100 µM (inactive) | > 100 µM (inactive) | > 100 µM (inactive) | > 100 µM (inactive) | > 100 µM (inactive) | > 100 µM (inactive)
9 | CCC(C)c1cccc(C)c1NC(=O)C(=O)Cc1nc2ccccc2s1 (stereo not drawn) | > 100 µM (inactive) | > 100 µM (inactive) | > 100 µM (inactive) | > 100 µM (inactive) | > 100 µM (inactive) | > 100 µM (inactive) | > 100 µM (inactive) | > 100 µM (inactive) | > 100 µM (inactive) | > 100 µM (inactive) | > 100 µM (inactive) | > 100 µM (inactive) | > 100 µM (inactive) | > 100 µM (inactive) | > 100 µM (inactive) | > 100 µM (inactive)
